Source: article PMC12022103 (Scientific Reports, 2025)
No end group written: not given here.

Columns and labels:
A. baumannii ATCC 17978 [1] = assay: Minimum bactericidal concentration (MBC); format: cell-based; settings: 5 µL from MIC wells plated on MH II agar, 37 °C overnight, no visible colonies, triplicate, highest number reported
Procedure: (§1) The panel of bacterial reference strains used in this work for assessment of synthetic peptide activity originated from the American Type Culture Collection (ATCC) and was obtained from the Diagnostic section at the Department of Microbiology, Oslo University Hospital. The strains used were as follows: E. coli ATCC 25922, K. pneumoniae ATCC 13883, A. baumannii ATCC 17978, S. aureus ATCC 29213, and E. faecalis ATCC 29212.
(§2) Bacterial strains were plated on cation-adjusted Mueller-Hinton (MH II) agar plates and incubated at 37 °C overnight. The day after single colonies were picked and resuspended in sterile-filtered saline (0.9%). The OD of each bacterial suspension was adjusted to McFarland standard 0.5 using a spectrophotometer (UV-1800, Shimadzu), and the suspension further diluted 1:100 in MH II broth, corresponding to 10^6 colony forming units (CFU) per mL. The inoculum suspension was used for MIC, MBC, time-kill and protease stability assessments as described below. To ensure correct inoculum sizes, 10 µL of the bacterial suspensions were diluted 2000-fold in sterile-filtered saline (0.9%) and 100 µL plated onto MH II agar plates. After overnight incubation at 37 °C, colonies were counted. If found to be outside the acceptable number (20–80 colonies per plate corresponding to ∼10^6 CFU/mL), results from further analyses were discarded.
(§3) In order to assess the minimum bactericidal concentration (MBC) of peptides, 5 µL from each well of the 96-well plate used for MIC analysis was plated onto MH II agar and incubated at 37 °C overnight. […] The experiments were performed in triplicate. Two-fold variations in MIC values were often observed between replicates.

E. faecalis ATCC 29212 [2] = assay: Minimum bactericidal concentration (MBC); format: cell-based; settings: 5 µL from MIC wells plated on MH II agar, 37 °C overnight, no visible colonies, triplicate, highest number reported
Procedure: as §1, §2, §3

K. pneumoniae ATCC 13883 [3] = assay: Minimum bactericidal concentration (MBC); format: cell-based; settings: 5 µL from MIC wells plated on MH II agar, 37 °C overnight, no visible colonies, triplicate, highest number reported
Procedure: as §1, §2, §3

S. aureus ATCC 29213 [4] = assay: Minimum bactericidal concentration (MBC); format: cell-based; settings: 5 µL from MIC wells plated on MH II agar, 37 °C overnight, no visible colonies, triplicate, highest number reported
Procedure: as §1, §2, §3

E. coli ATCC 25922 [5] = assay: Minimum inhibitory concentration (MIC), broth dilution; format: cell-based, Escherichia coli; settings: E. coli ATCC 25922; two-fold dilution in MH II broth, 5 × 10^5 CFU/mL, 18–24 h, 37 °C, OD600; triplicate, highest number reported; detection limit <0.5 and >128 µM
Procedure: as §1, §2
(§4) The peptides were serially diluted (two-fold) directly in 96-well plates (Greiner, MICROPLATE, 96 WELL, PP, U-BOTTOM, NATURAL, 650261) containing MH II broth, corresponding to concentrations in the range 256–0.5 µM. An equal volume of bacterial suspension was added to each well, resulting in a final inoculum of 5 × 10^5 CFU/mL and final peptide concentrations of 128–0.25 µM. The 96-well plates were incubated for 18–24 h at 37 °C, after which the OD of each well was measured at 600 nm in a plate reader (Victor Nivo, Perkin-Elmer). The minimum inhibitory concentration (MIC) was estimated as the lowest concentration of peptide that produced OD600 measurements similar to the control wells containing no bacteria. The experiments were performed in triplicate. Two-fold variations in MIC values were often observed between replicates.

E. coli ATCC 25922 [6] = assay: Minimum bactericidal concentration (MBC); format: cell-based, Escherichia coli; settings: 5 µL from MIC wells plated on MH II agar, 37 °C overnight, no visible colonies, triplicate, highest number reported, detection limit <0.5 and >128 µM
Procedure: as §1, §2, §3

A. baumannii ATCC 17978 [7] = assay: Minimum inhibitory concentration (MIC), broth dilution; format: cell-based; settings: MH II broth, 5 × 10^5 CFU/mL, 18–24 h, 37 °C, OD600, triplicate, highest number reported, detection limit <0.5 and >128 µM
Procedure: as §1, §2, §4

E. faecalis ATCC 29212 [8] = assay: as above; format: cell-based; settings: E. faecalis ATCC 29212; MH II broth, 5 × 10^5 CFU/mL, 18–24 h, 37 °C, OD600; triplicate, highest number reported; detection limit <0.5 and >128 µM
Procedure: as §1, §2, §4

K. pneumoniae ATCC 13883 [9] = assay: as above; format: cell-based; settings: K. pneumoniae ATCC 13883; MH II broth, 5 × 10^5 CFU/mL, 18–24 h, 37 °C, OD600; triplicate, highest number reported; detection limit <0.5 and >128 µM
Procedure: as §1, §2, §4

S. aureus ATCC 29213 [10] = assay: as above; format: cell-based; settings: S. aureus ATCC 29213; MH II broth, 5 × 10^5 CFU/mL, 18–24 h, 37 °C, OD600; triplicate, highest number reported; detection limit <0.5 and >128 µM
Procedure: as §1, §2, §4

P. aeruginosa [11] = assay: as above; format: cell-based; settings: MH II broth, 5 × 10^5 CFU/mL, 18–24 h, 37 °C, OD600; triplicate, highest number reported; detection limit <0.5 and >128 µM
P. aeruginosa [12] = assay: Minimum bactericidal concentration (MBC); format: cell-based; settings: 5 µL from MIC wells plated on MH II agar, 37 °C overnight, no visible colonies; triplicate, highest number reported

| Substance | MBC, A. baumannii (A. baumannii ATCC 17978 [1]) | MBC, E. faecalis (E. faecalis ATCC 29212 [2]) | MBC, K. pneumoniae (K. pneumoniae ATCC 13883 [3]) | MBC, S. aureus (S. aureus ATCC 29213 [4]) | MIC, E. coli (E. coli ATCC 25922 [5]) | MBC, E. coli (E. coli ATCC 25922 [6]) | MIC, A. baumannii (A. baumannii ATCC 17978 [7]) | MIC, E. faecalis (E. faecalis ATCC 29212 [8]) | MIC, K. pneumoniae (K. pneumoniae ATCC 13883 [9]) | MIC, S. aureus (S. aureus ATCC 29213 [10]) | MIC, P. aeruginosa (P. aeruginosa [11]) | MBC, P. aeruginosa (P. aeruginosa [12]) |
| --- | --- | --- | --- | --- | --- | --- | --- | --- | --- | --- | --- | --- |
| KKKKFVLQLILKLL-NH2 [2f-N12] | > 128 µM | > 128 µM | > 128 µM | > 128 µM | > 128 µM | > 128 µM | > 128 µM | > 128 µM | > 128 µM | > 128 µM | > 128 µM | > 128 µM |
| KKKKIAVLQLILLFL-NH2 [2b-N12] | > 128 µM | > 128 µM | > 128 µM | > 128 µM | > 128 µM | > 128 µM | > 128 µM | > 128 µM | > 128 µM | > 128 µM | > 128 µM | > 128 µM |
| KKKKIIAVLQLILLFL-NH2 [2c-N12] | > 128 µM | > 128 µM | > 128 µM | > 128 µM | > 128 µM | > 128 µM | > 128 µM | > 128 µM | > 128 µM | > 128 µM | > 128 µM | > 128 µM |
| KKKKIIIAVLQLILLFL-NH2 [2d-N12] | > 128 µM | > 128 µM | > 128 µM | > 128 µM | > 128 µM | > 128 µM | > 128 µM | > 128 µM | > 128 µM | > 128 µM | > 128 µM | > 128 µM |
| KKKKKKFVLKLILKLL-NH2 [2g-N12] | 128 µM | 128 µM | 128 µM | 128 µM | 128 µM | 128 µM | 128 µM | 64 µM | 64 µM | 128 µM | 128 µM | 128 µM |
| KKKKKKFVLQLILKLL-NH2 [2h-N12] | > 128 µM | > 128 µM | > 128 µM | > 128 µM | > 128 µM | > 128 µM | > 128 µM | > 128 µM | > 128 µM | > 128 µM | > 128 µM | > 128 µM |
